Measurements from patent US11292776B2, “Small molecule inhibitors of fungal hyphae and biofilm formation” (University of Sharjah, priority 2019, dated 2022).
In brackets after ≈: the same amount, converted by molar mass.

Experiments:
[1] = test system: C. albicans yeast; assay: Antimicrobial activity / MIC against C. albicans growing in yeast-forming conditions; format: cell-based, C. albicans SC5314; details: for MIC: 24 h; for MIC / MIC C. albicans Yeast: MIC100, lowest concentration inhibiting 100% of growth, 24 hrs incubation; for IC50: Candida albicans, −log IC50 against C. albicans, training set of 3D QSAR, read-out: pIC50 Experimental (converted)
Method: (§1) Collections of bacterial and fungal strains were obtained from the laboratory of Dr. Ibrahim at Harbor-UCLA medical center, Torrance, Calif. The bacterial strains used in this study were the Gram-negative bacterium Escherichia coli and the Gram-Positive bacterium methicillin-resistant Staphylococcus aureus (MRSA) LAC300. All bacterial strains were cultured on sterile Luria-Bertani medium (LB). The fungal strain used in this study was C. albicans SC5314. C. albicans was inoculated into sterile yeast potato dextrose broth (YPD) and incubated for 24 h at 37° C. (This was used as an initial culture for all studies described), and incubated in two different media, Yeast Nitrogen Base (YNB) broth or Roswell Park Memorial Institute medium (RPMI-1640). Polymyxin B (colistin), vancomycin and Ketoconazole were purchased from (Sigma-Aldrich).
(§2) The antimicrobial activity of compounds SR1-8 on agar plates, liquid broth media and MIC were measured according to modified Clinical and Laboratory Standards Institute (CLSI). Briefly, 0.1 mL containing 10^5 CFU/mL was spread on Luria-Bertani (LB) agar plates. The plates were then incubated at 37° C. for […] with filter discs (8 mm diameter) saturated with different dilutions of the compounds (1-400 μg/mL). The inhibition zones (mm) were measured by determining the diameter of the clear area. Similarly, the activity in liquid media was measured by incubating the aforementioned concentrations of the compounds into LB broth media inoculated with 10^5 CFU/mL in 96-well microplates at 37° C. for 24 h. The turbidity representing the microbial growth was measured by microplate reader (DYNEX technologies) at OD600. […] Each test was performed in triplicate. Ketoconazole, colistin and vancomycin were employed as positive controls against C. albicans, E. coli and S. aureus bacteria, respectively. Cultures without the compounds or antimicrobials were employed as negative control.

[2] = test system: E. coli; assay: Antimicrobial activity / MIC against E. coli; format: cell-based, Escherichia coli; details: MIC100, 24 hrs incubation; for MIC: Escherichia coli, read-out: MIC Bacteria E. Coli
Method: as §1, §2

[3] = test system: C. albicans hyphae / biofilm; assay: Inhibition of Candida biofilm (hyphae) formation, microtiter plate MTT assay; format: cell-based, C. albicans SC5314; details: for MIC: MIC100 for biofilm (hyphal) formation, 24 hrs incubation, RPMI-1640, 37° C.; for inhibition at 10 µg/mL: 10 μg/mL, hyphae growth conditions
Method: as §1
The MICs for cells forming biofilm were determined by a microtiter plate assay. Briefly, a 96-well polystyrene microtiter plate was seeded with 200 μL of RPMI-1640 containing 10^6 C. albicans cells in the presence of the compound of interest at concentration range of 1-100 μg/mL. After 24 h of incubation at 37° C., the biofilms were washed and the fungal viability was analyzed using 3-(4,5-dimethylthiazol-2-yl)-2,5-diphenyl tetrazolium bromide (MTT) (Sigma) and the final absorbance was measured at 540 nm. The assay was performed in triplicate and repeated three times. The MIC of the compounds causing 100% inhibition of C. albicans biofilm formation was determined by measuring the metabolic activity of biofilm compared to solvent control.

[4] = test system: S. aureus; assay: Antimicrobial activity / MIC against S. aureus; format: cell-based, methicillin-resistant Staphylococcus aureus (MRSA) LAC300; details: Staphylococcus aureus; MIC100; 24 hrs incubation; read-out: MIC Bacteria S. aureus
Method: as §1, with “Polymyxin B (colistin), vancomycin and Ketoconazole were purchased from (Sigma-Aldrich).” left out
The antimicrobial activity of compounds SR1-8 on agar plates, liquid broth media and MIC were measured according to modified Clinical and Laboratory Standards Institute (CLSI). […] The inhibition zones (mm) were measured by determining the diameter of the clear area. Similarly, the activity in liquid media was measured by incubating the aforementioned concentrations of the compounds into LB broth media inoculated with 10^5 CFU/mL in 96-well microplates at 37° C. for 24 h. The turbidity representing the microbial growth was measured by microplate reader (DYNEX technologies) at OD600. […]

[5] = test system: human erythrocytes
Method: DPBS-washed erythrocytes (3×10^6 cells per well) were incubated in 96-well plate with 200 μg/mL of SR compounds at 37° C. for 30 min. The hemoglobin released from lysed erythrocytes was measured using micro-plate reader at 405 nm. The absorbance value for each sample was subtracted from the absorbance value of cells treated only with washing buffer and the hemolytic activity (%) was calculated. The data display the mean±standard error (SEM) of three independent measurements.
The cytotoxic assay of SR compounds was measured by quantifying the amount of hemoglobin released by lysis of human erythrocytes as previously described. Briefly, fresh whole blood from healthy individual was collected by venipuncture and the blood was immediately centrifuged at 500 g for 10 min using benchtop centrifuge (Eppendorf 5804R Refrigerated Benchtop). […] The plate was incubated at 37° C. for 30 min, and the intact cells were precipitated by centrifugation at 500 g for 10 min at 4° C. and the supernatants (125 μL) were transferred to a flat-bottom 96-well plate to measure hemoglobin release by absorbance at 405 nm using a microplate reader. The absorbance values for each sample were subtracted from the absorbance value obtained for washing buffer-treated cells and the hemolytic activity (%) was calculated. […]

Compound	MIC [1] [µg/mL]	IC50 [1] [µM]	MIC C. albicans Yeast [1] [µg/mL]	melting point [°C]	MIC [2] [µg/mL]	MIC [3] [µg/mL]	inhibition at 10 µg/mL [3] [%]	MIC [4] [µg/mL]	erythrocyte hemolysis (positive control) [5] [%]	MIC Bacteria E. Coli [2] [µg/mL]
Cc1ccc(COc2ccc(C=C3SC(=S)NC3=O)cc2Br)cc1 [SR2, 5-[3-Bromo-4-(4-methyl-benzyloxy)-benzylidene]-2-thioxo-thiazolidin-4-one]	200 (≈ 476 µM)	475	200 ± 15 (≈ 476 µM)	217 to 219	100 ± 10 (≈ 238 µM)	10 ± 2 (≈ 23.8 µM)	–	–	–	–
COc1cc(C=C2SC(=S)NC2=O)ccc1OCc1ccc(C(F)(F)F)cc1 [SR4, 5-[3-Methoxy-4-(4-trifluoromethyl-benzyloxy)-benzylidene]-2-thioxo-thiazolidin-4-one]	200 (≈ 470 µM)	456	200 ± 10 (≈ 470 µM)	209 to 211	100 ± 10 (≈ 235 µM)	20 ± 5 (≈ 47 µM)	50	–	–	–
O=C1NC(=S)SC1=Cc1ccc(OCc2cccc(C(F)(F)F)c2)c(Br)c1 [SR6, 5-[3-Bromo-4-(3-trifluoromethyl-benzyloxy)-benzylidene]-2-thioxo-thiazolidin-4-one]	125 (≈ 264 µM)	264	125 ± 10 (≈ 264 µM)	235 to 237	400 ± 10 (≈ 843 µM)	10 ± 5 (≈ 21.1 µM)	50	–	–	–
O=C1NC(=S)SC1=Cc1ccc(OCc2cccc(C(F)(F)F)c2)c(Cl)c1 [SR8, 5-[3-Chloro-4-(3-trifluoromethyl-benzyloxy)-benzylidene]-2-thioxo-thiazolidin-4-one]	125 (≈ 291 µM)	294	125 ± 10 (≈ 291 µM)	224 to 226	100 ± 10 (≈ 233 µM)	20 ± 5 (≈ 46.5 µM)	50	–	–	–
COc1cc(C=C2SC(=S)NC2=O)ccc1OCc1cccc(C(F)(F)F)c1 [SR7, 5-[3-Methoxy-4-(3-trifluoromethyl-benzyloxy)-benzylidene]-2-thioxo-thiazolidin-4-one]	125 (≈ 294 µM)	264	125 ± 10 (≈ 294 µM)	199 to 201	100 ± 5 (≈ 235 µM)	10 ± 3 (≈ 23.5 µM)	90	–	–	–
COc1cc(C=C2SC(=S)NC2=O)ccc1OCc1ccc(C)cc1 [SR1, 5-[3-Methoxy-4-(4-methyl-benzyloxy)-benzylidene]-2-thioxo-thiazolidin-4-one]	400 (≈ 1080 µM)	1080	>400 ± 15	205 to 207	100 ± 10 (≈ 269 µM)	20 ± 5 (≈ 53.8 µM)	–	> 400	–	–
Cc1ccc(COc2ccc(C=C3SC(=S)NC3=O)cc2Cl)cc1 [SR3, 5-[3-Chloro-4-(4-methyl-benzyloxy)-benzylidene]-2-thioxo-thiazolidin-4-one]	400 (≈ 1060 µM)	1060	>400 ± 10	225 to 227	400 ± 10 (≈ 1060 µM)	20 ± 5 (≈ 53.2 µM)	–	–	–	–
CC(=O)N1CCN(c2ccc(OCC3COC(Cn4ccnc4)(c4ccc(Cl)cc4Cl)O3)cc2)CC1 (centres unmarked) [Ketoconazole, reference compound]	3 (≈ 5.65 µM)	–	–	–	–	–	–	–	–	–
Triton X-100	–	–	–	–	–	–	–	–	100	–
Colistin [reference compound]	–	–	–	–	–	–	–	–	–	5
O=C1NC(=S)SC1=Cc1ccc(OCc2ccc(C(F)(F)F)cc2)c(Br)c1 [SR5, 5-[3-Bromo-4-(4-trifluoromethyl-benzyloxy)-benzylidene]-2-thioxo-thiazolidin-4-one]	200 (≈ 422 µM)	470	200 ± 15 (≈ 422 µM)	210 to 212	400 ± 20 (≈ 843 µM)	20 ± 3 (≈ 42.2 µM)	–	–	–	–
